Earlier results in patent US4535081A, “Antiallergic and antiulcer 1-oxo-1H-thiazolo[3,2-a]pyrimidine-2-carboxamides and intermediates therefor” (Pfizer Inc., priority 1983, dated 1985).
Entries after “also recorded” stand apart in the source; their conditions may differ. Read-outs that look alike come from different tables or passages of the source.

Key:
[1] = test system: gastric ulcers; conditions: literature; cited from earlier work
[2] = test system: gastric acid secretion; conditions: literature; cited from earlier work
[3] = test system: allergic reactions; conditions: cited from earlier work
[4] = test system: bronchi; conditions: Cox et al., Adv. in Drug Res., 5, 115 (1970); cited from earlier work

Question: With `CC1(C)[C@@H](OC(=O)CCC(=O)O)CC[C@]2(C)[C@H]3C(=O)C=C4[C@@H]5C[C@@](C)(C(=O)O)CC[C@]5(C)CC[C@@]4(C)[C@]3(C)CC[C@@H]12` [carbenoxolone sodium] as the compound, how does the “effect on gastric ulcers” value [1] read?
Answer: prevent formation of and to accelerate healing of gastric ulcers in animals, including humans

Question: With `CN/C(=N/CCSCc1nc[nH]c1C)NC#N` [cimetidine] as the compound, how does the “effect on ulcers / gastric acid secretion” value [2] read?
Answer: alleviates ulcers by reducing gastric acid secretion

Question: What does the source list for `O=C(O)c1cc(=O)c2c(OCC(O)COc3cccc4oc(C(=O)O)cc(=O)c34)cccc2o1` [Intal, 1,3-bis(2-carboxycromon-5-yloxy)-2-hydroxypropane]?
Answer: activity by the oral route [3]: lacks efficacy by the oral route; also recorded: not active by the oral route; activity by the oral route ([3]; listed as disodium cromoglycate): lack of oral efficacy; bronchodilator action [4]: not a bronchodilator
